# Source: patent publication US9227956B2 (Pfizer Inc., priority 2013, dated 2016)
# Legend:
# PCSK9 = PCSK9 lowering in sandwich culture human hepatocytes (SCHH); format: cell-based; details: maximum response versus vehicle
# Method: Test compound in-vitro pharmacokinetic and pharmacodynamic relationships were measured in sandwich culture primary cryopreserved human hepatocytes. Within these studies SCHH cells (BD Biosciences IVT) were thawed at 37° C. then placed on ice, after which the cells were added to pre-warmed (37° C.) In VitroGRO-HT media and centrifuged at 50×g for 3 min. The cell pellet was re-suspended to 0.8×10^6 cells/mL in InVitroGRO-CP plating medium and cell viability determined by trypan blue exclusion. On day 1, hepatocyte suspensions were plated in BioCoat 96-well plates at a density of 80000 cells/well in a volume of 0.1 mL/well. After 18 to 24 hours of incubation at 37° C. in 5% CO2, cells were overlaid with ice-cold 0.25 mg/mL BD Matrigel Matrix Phenol Red-Free in incubation medium at 0.1 mL/well. Cultures were maintained at 37° C. in 5% CO2 in InVitroGRO-HI (FBS-free media), which was replaced every 24 hours and time course treatments were initiated on day 5. Prior to compound treatment cell plates were washed 3 times with 0.1 mL/well InVitroGRO-HI and 0.09 mL of media was added back in preparation for the compound additions. 1 uL of either DMSO or compound DMSO stocks at 30 mM, 10 mM, 3 mM and 1 mM were stamped into 96 well V bottom polypropylene plates. 0.099 mL of media was added to the compound plate and mixed thoroughly before the addition of 0.010 mL from the interim compound plate to the cell plate. […] At the indicated time, 0.08 mL of media was removed from the cell plates and frozen for subsequent analysis of secreted PCSK9 by AlphaLISA and for determination of drug levels in the media by liquid chromatography-tandem mass spectrometry (LC-MS/MS). The remaining media was then aspirated and the cell layers were washed 3× with ice cold Hanks Balanced Salt Solution (HBSS) under shaking conditions to remove the matrigel overlay and plates were then stored at −20° C. for subsequent determination of drug levels in the cells by LC-MS/MS. AlphaLISA determination of PCSK9 protein levels within the conditioned media was performed ultilizing the identical reagents and detection protocols described above for the WT7 cells.
# human PCSK9 [1] = assay: PCSK9 AlphaLISA assay, PCSK9 lowering in WT7 cells; details: WT7 cells (Huh7 stably over-expressing human PCSK9); secreted PCSK9 by AlphaLISA; overnight incubation (16-24 h); top concentration 20 μM; read-out: Cell Based PCSK9 IC50
# Source text: An in-vitro AlphaLISA assay (Perkin Elmer) was developed in order to quantitate the level of PCSK9 secreted into the cell culture media following compound treatment. To detect and measure PCSK9 protein an in-house generated anti-PCSK9 antibody was coupled to AlphaLISA acceptor beads by an external vendor (PerkinElmer) and a second internally developed anti-PCSK9 antibody with an epiptope distinct from that of the acceptor beads was biotinylated in house. Streptavidin coated-donor beads (Perkin Elmer) are also included in the assay mixture which then binds the biotinylated anti-PCSK9 antibody and in the presence of PCSK9 this donor complex and acceptor beads are brought into close proximity. […] The ability of compound to modulate PCSK9 protein levels in conditioned media by AlphaLISA was assessed in the human hepatocellular carcinoma cell line Huh7, stably over-expressing human PCSK9. […] Following plasmid transfection the stable WT7 clone was identified and maintained under Zeocin selection. Compound screening was performed in 384-well plates where WT7 cells were plated at a density of 7500 cells per well in 20 μL of tissue culture media containing compound in an eleven point, 0.5 log dilution format at a high treatment concentration of 20 μM in a final volume of 0.5% DMSO. In additional to these test compound conditions each screening plate also included wells that contained 20 μM puromycin as a positive assay control defined as high percent effect, HPE, as well as wells containing media in 0.5% DMSO as a negative treatment control defined as zero percent effect, ZPE. After overnight compound incubation (16-24 h) the tissue culture media was collected and an aliquot from each sample was transferred to individual wells of a 384-well white Optiplate (Perkin Elmer). The coupled antibodies and donor beads were added to the assay plates in a buffer composed of 30 mM Tris pH 7.4, 0.02% Tween-20 and 0.02% Casein. Anti-PCSK9 acceptor beads (final concentration of 10 μg/mL) and anti-PCSK9 biotinylated antibody (final concentration of 3 nM) were added and incubated for 30 minutes at room temperature followed by the addition of the streptavidin donor beads (final concentration 40 μg/mL) for an additional 60 minutes. Additionally a standard curve was generated where AlphaLISA reagents were incubated in wells spiked with recombinant human PCSK9 diluted in tissue culture media from 5000 ng/mL to 0.6 ng/mL. […] The test compound data were converted into percent effect, using the ZPE and HPE controls as 0% and 100% activity, respectively. The equation used for converting each well reading into percent effect was:
# [formula] IC50 was then calculated and reported as the midpoint in the percent effect curve in molar units and the values are reported under the Cell Based PCSK9 IC50 (μM) column header within Table 1 Biological Data. Additionally, to monitor the selectivity of compound response for PCSK9 the level of a second secreted protein, Transferrin, was measured from the same conditioned media treated with test compound by AlphaLISA. […] To detect and quantify effects on Transferrin 0.01 mL of the culture media was transferred to a 384-well white Optiplate and 0.01 mL of media was added to bring the volume to 0.02 ml. Anti-Transferrin acceptor beads were added to a final concentration of 10 μg/mL, biotinylated anti-Transferrin at 3 nM and streptavidin donor beads at 40 μg/mL. Percent effect and IC50 for Transferrin was computed in a similar manner as that described for PCSK9.
# human PCSK9 [2] = assay: Cell Free PCSK9 Assay (PCSK9-luciferase RNA translated in HeLa cell lysate); format: biochemical; details: 30° C. for 45 minutes, luciferase readout, top concentration 100 μM
# Method: In order to eliminate the permeability barrier inherent to the WT7 and SCHH cell-based assays a cell-free system was also established to access compound activity. […] The construct was then in-vitro transcribed using the MEGAscript T7 Kit (Life Technologies) and RNA subsequently purified incorporating the MEGAclear Kit (Life Technologies) according to manufacturer's protocols. […] Growth was in a 50 L wavebag at a rocker speed of 25 rpm and angle 6.1 with 5% CO2 and 0.2 LPM flow rate with cells harvested at a density of 2-2.5e6/ml. Lysates additionally contained 1 tablet of Roche cOmplete-EDTA protease inhibitors per 50 ml with tris(2-carboxyethyl)phosphine (Biovectra) substituted for dithiothreitol, and were clarified by an additional final centrifugation at 10,000 rpm in a Sorvall SS34 rotor at 4° C. for 10 minutes. Compound screening was performed in 384-well plates in an eleven point, 0.5 log dilution format at a top test compound concentration of 100 μM in a final volume of 0.5% DMSO. […] Upon assay completion 1 μL from each reaction solution was removed and transferred to a second 384-well Optiplate (Perkin Elmer) containing 24 μL of SteadyGlo (Promega) and signal intensity was measured on the Envision (Perkin Elmer) using the enhanced luminescence protocol. […] The test compound data were converted into percent effect, using the ZPE and HPE controls as 0% and 100% activity, respectively, applying Equation 1 above. IC50 was then calculated and reported as the midpoint in the percent effect curve in molar units and the values are reported under the Cell Free PCSK9 IC50 (μM) column header within Table 1 Biological Data.
SMILES,Sandwich Culture Hepatocyte (SCHH) PCSK9 Lowering (PCSK9; at 6 h at 30 uM) [% at 6 h at 30 uM],IC50 (human PCSK9 [1]) [µM],IC50 (human PCSK9 [2]) [µM],Sandwich Culture Hepatocyte (SCHH) PCSK9 Lowering (PCSK9; at 8 h at 30 μM) [% at 8 h at 30 μM]
"CCC(=O)OC(C)n1nnc(-c2c(-c3ccc(C(=O)N(c4ncccc4C)[C@@H]4CCCNC4)cc3)cnn2C)n1 (single isomer, unassigned) [Example 44]",12,> 20,4.39,–
"Cc1cccnc1N(C(=O)c1ccc(-c2cnn3cccnc23)cc1)[C@@H]1CCCNC1 [Example 1, N-(3-methylpyridin-2-yl)-N-[(3R)-piperidin-3-yl]-4-(pyrazolo[1,5-a]pyrimidin-3-yl)benzamide]",–,3.2,0.44,74
"CCC(=O)OC(C)n1nnc(-c2c(-c3ccc(C(=O)N(c4ncccc4C)[C@@H]4CCCNC4)cc3)cnn2C)n1 (single isomer, unassigned) [Example 45]",8,> 20,25.1,–
"CCOC(=O)OC(C)OC(=O)c1c(-c2ccc(C(=O)N(c3ncccc3Cl)[C@@H]3CCCNC3)cc2)cnn1C (stereo partly drawn) [Example 8, 1-[(ethoxycarbonyl)oxy]ethyl 4-(4-{(3-chloropyridin-2-yl)[(3R)-piperidin-3-yl]carbamoyl}phenyl)-1-methyl-1H-pyrazole-5-carboxylate]",–,9.5,3.7,70
"CCOC(=O)OC(n1nnc(-c2c(-c3ccc(C(=O)N(c4ncccc4C)[C@@H]4CCCNC4)cc3)cnn2C)n1)C(C)(C)C (single isomer, unassigned) [Example 36]",27,> 20,5.43,–
"COC(=O)c1c(-c2ccc(C(=O)N(c3ncccc3Cl)[C@@H]3CCCNC3)cc2)cnn1C [Example 10, Methyl 4-(4-{(3-chloropyridin-2-yl)[(3R)-piperidin-3-yl]carbamoyl}phenyl)-1-methyl-1H-pyrazole-5-carboxylate]",–,1.5,0.64,87
"Cc1cccnc1N(C(=O)c1ccc(-c2cnn(C)c2-c2nnn(C(OC(=O)C(C)C)C(C)C)n2)cc1)[C@@H]1CCCNC1 (single isomer, unassigned) [Example 55]",40,> 19.2,19.8,–
"CCOC(=O)O[C@@H](C)OC(=O)c1c(-c2ccc(C(=O)N(c3ncccc3Cl)[C@@H]3CCCNC3)cc2)cnn1C [Example 15a, (1S)-1-[(ethoxycarbonyl)oxy]ethyl 4-(4-{(3-chloropyridin-2-yl)[(3R)-piperidin-3-yl]carbamoyl}phenyl)-1-methyl-1H-pyrazole-5-carboxylate]",–,7.3,3.1,72
"Cc1cccnc1N(C(=O)c1ccc(-c2cnn(C)c2-c2nnn(C(C)OC(=O)C(C)C)n2)cc1)[C@@H]1CCCNC1 (single isomer, unassigned) [Example 51]",48,> 20,3.56,–
"CCOC(=O)c1c(-c2ccc(C(=O)N(c3ncccc3Cl)[C@@H]3CCCNC3)cc2)cnn1C [Example 6, ethyl 4-(4-{(3-chloropyridin-2-yl)[(3R)-piperidin-3-yl]carbamoyl}phenyl)-1-methyl-1H-pyrazole-5-carboxylate]",–,–,1.7,80

# More lines, now with the values ahead:
Sandwich Culture Hepatocyte (SCHH) PCSK9 Lowering (PCSK9; at 6 h at 30 uM) [% at 6 h at 30 uM],IC50 (human PCSK9 [1]) [µM],IC50 (human PCSK9 [2]) [µM],Sandwich Culture Hepatocyte (SCHH) PCSK9 Lowering (PCSK9; at 8 h at 30 μM) [% at 8 h at 30 μM],SMILES
20,> 20,5.22,–,"CCOC(=O)OC(C(C)C)n1nnc(-c2c(-c3ccc(C(=O)N(c4ncccc4C)[C@@H]4CCCNC4)cc3)cnn2C)n1 (single isomer, unassigned) [Example 34]"
35,> 19.4,15.4,–,"CCC(OC(=O)OC(C)C)n1nnc(-c2c(-c3ccc(C(=O)N(c4ncccc4C)[C@@H]4CCCNC4)cc3)cnn2C)n1 (single isomer, unassigned) [Example 41]"
3,–,2.19,–,"Cc1cccnc1N(C(=O)c1ccc(-c2cnn(C)c2-c2nnn(C(C)OC(=O)OC(C)C)n2)cc1)[C@@H]1CCCNC1 (single isomer, unassigned) [Example 38]"
16,> 20,7.68,–,"CCC(=O)OC(C(C)C)n1nnc(-c2c(-c3ccc(C(=O)N(c4ncccc4C)[C@@H]4CCCNC4)cc3)cnn2C)n1 (single isomer, unassigned) [Example 48]"
25,> 20,10.7,–,"CCC(OC(=O)C(C)C)n1nnc(-c2c(-c3ccc(C(=O)N(c4ncccc4C)[C@@H]4CCCNC4)cc3)cnn2C)n1 (single isomer, unassigned) [Example 52]"
26,> 20,18.2,–,"CCC(OC(=O)OC(C)C)n1nnc(-c2c(-c3ccc(C(=O)N(c4ncccc4C)[C@@H]4CCCNC4)cc3)cnn2C)n1 (single isomer, unassigned) [Example 40]"
0,–,0.592,–,"Cc1cccnc1N(C(=O)c1ccc(-c2cnn(C)c2-c2nnn(C(C)OC(=O)OC(C)C)n2)cc1)[C@@H]1CCCNC1 (single isomer, unassigned) [Example 39]"
